Reference: patent publication US20260102501A1, “ANTI-CANCER NUCLEAR HORMONE RECEPTOR-TARGETING COMPOUNDS” (Nuvation Bio Inc., priority 2022, published 2026)
Where a chain is given by its changes, count along the chain named.

Columns and labels:
[1] = target: T1, ligand binding domain of the glucocorticoid receptor (HEK293 cells stably expressing) (Homo sapiens, UniProt P04150); test: GR antagonism assay (luciferase reporter)
T1 sequence (P04150 524-758 limits assumed): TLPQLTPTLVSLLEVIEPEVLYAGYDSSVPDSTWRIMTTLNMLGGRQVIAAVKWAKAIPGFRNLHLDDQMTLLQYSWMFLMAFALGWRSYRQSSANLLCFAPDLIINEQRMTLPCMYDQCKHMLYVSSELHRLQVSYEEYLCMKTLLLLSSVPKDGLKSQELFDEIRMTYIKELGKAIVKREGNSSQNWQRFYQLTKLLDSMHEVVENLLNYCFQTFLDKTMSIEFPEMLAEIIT

T47D cells = test: Cell viability assay (CellTiterGlo); format: cell-based; conditions: Homo sapiens, 144 h, read-out: T47D (IC50, nM)
LNCap cells = test: Cell viability assay (CellTiterGlo); format: cell-based; conditions: Homo sapiens, 144 h, read-out: LNCap (IC50, nM)
IEC6 cells = test: Cell viability assay (CellTiterGlo); conditions: Rattus norvegicus, IEC-6, 144 h, read-out: IEC-6 (IC50, nM)
[2] = target: T2, GR (cytosol from IM-9 cells) (Homo sapiens, UniProt P04150); test: GR binding assay (3H-Dexamethasone displacement)
T2 sequence (P04150 1-777): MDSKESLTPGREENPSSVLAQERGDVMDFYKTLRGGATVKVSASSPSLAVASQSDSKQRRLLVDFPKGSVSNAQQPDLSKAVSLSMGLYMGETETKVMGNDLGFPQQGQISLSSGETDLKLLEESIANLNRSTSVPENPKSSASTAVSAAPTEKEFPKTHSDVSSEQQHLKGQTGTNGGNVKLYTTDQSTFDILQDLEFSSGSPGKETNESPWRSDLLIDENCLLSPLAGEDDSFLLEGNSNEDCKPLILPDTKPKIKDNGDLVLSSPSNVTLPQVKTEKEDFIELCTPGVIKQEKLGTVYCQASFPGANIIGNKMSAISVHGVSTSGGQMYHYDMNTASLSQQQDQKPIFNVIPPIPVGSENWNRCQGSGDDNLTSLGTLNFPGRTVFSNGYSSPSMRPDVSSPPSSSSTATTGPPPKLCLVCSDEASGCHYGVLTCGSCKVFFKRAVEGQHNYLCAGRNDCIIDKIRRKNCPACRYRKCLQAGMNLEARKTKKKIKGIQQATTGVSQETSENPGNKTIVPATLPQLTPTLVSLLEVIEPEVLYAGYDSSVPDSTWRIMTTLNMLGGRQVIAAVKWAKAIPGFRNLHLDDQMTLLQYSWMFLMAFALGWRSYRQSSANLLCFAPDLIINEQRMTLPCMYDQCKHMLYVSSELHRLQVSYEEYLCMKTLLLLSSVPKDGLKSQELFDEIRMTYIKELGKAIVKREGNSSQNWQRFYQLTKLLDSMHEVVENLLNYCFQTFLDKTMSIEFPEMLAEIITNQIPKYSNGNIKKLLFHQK

[3] = target: T3, AR (cytosol from LnCaP cells) (Homo sapiens, UniProt P10275, T878A); test: AR binding assay (3H-R1881 displacement)
T3 sequence (P10275 1-920 T878A): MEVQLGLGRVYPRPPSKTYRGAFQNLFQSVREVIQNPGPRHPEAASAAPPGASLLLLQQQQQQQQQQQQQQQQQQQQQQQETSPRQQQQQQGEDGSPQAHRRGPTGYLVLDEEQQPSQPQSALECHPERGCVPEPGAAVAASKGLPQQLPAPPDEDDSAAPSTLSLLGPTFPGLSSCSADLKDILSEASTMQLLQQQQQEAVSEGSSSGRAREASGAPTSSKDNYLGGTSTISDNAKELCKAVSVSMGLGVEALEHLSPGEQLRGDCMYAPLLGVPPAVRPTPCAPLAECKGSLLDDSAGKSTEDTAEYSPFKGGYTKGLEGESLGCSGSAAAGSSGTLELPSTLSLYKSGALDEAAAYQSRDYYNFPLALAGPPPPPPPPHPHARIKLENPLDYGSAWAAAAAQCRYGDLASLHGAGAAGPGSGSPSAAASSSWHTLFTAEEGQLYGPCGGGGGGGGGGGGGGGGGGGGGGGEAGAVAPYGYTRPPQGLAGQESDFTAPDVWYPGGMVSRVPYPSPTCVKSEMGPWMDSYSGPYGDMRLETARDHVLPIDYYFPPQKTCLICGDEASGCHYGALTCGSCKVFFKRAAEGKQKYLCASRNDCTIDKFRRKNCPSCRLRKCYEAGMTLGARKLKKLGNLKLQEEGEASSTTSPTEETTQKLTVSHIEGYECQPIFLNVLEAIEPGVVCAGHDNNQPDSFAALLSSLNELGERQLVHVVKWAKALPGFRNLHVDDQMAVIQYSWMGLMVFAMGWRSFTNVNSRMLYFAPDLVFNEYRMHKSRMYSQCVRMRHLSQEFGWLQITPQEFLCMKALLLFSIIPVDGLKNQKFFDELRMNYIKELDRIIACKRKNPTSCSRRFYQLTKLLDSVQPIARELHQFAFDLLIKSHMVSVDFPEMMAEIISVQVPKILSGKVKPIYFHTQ
Experimental: The plate was then centrifuged at 3000 rpm for 30 minutes at 4° C.

[4] = target: T4, full-length androgen receptor (HEK293 cells stably expressing) (Homo sapiens, UniProt P10275); test: AR antagonism assay (luciferase reporter)
T4 sequence (P10275 1-920): T3 sequence (P10275 1-920 T878A) with A878T

| Structure (SMILES) | IC50 [1] [µM] | IC50 (T47D cells) [nM] | IC50 (LNCap cells) [nM] | IC50 (IEC6 cells) [nM] | IC50 [2] [µM] | IC50 [3] [µM] | IC50 [4] [µM] |
| --- | --- | --- | --- | --- | --- | --- | --- |
| CC#C[C@]1(O)CC[C@H]2[C@@H]3CCC4=CC(=O)CCC4=C3[C@@H](c3ccc(N(C)CCCCCCN4CCN(C(=O)Oc5ccc6nc7c(cc6c5CN(C)C)Cn5c-7cc6c(c5=O)COC(=O)[C@]6(O)CC)CC4)cc3)C[C@@]21C [Compound 29, (S)-10-((Dimethylamino)methyl)-4-ethyl-4-hydroxy-3,14-dioxo-3,4,12,14-tetrahydro-1H-pyrano[3′,4′:6,7]indolizino[1,2-b]quinolin-9-yl 4-(6-((4-((8S,11R,13S,14S,17S)-17-hydroxy-13-methyl-3-oxo-17-(prop-1-yn-1-yl)-2,3,6,7,8,11,12,13,14,15,16,17-dodecahydro-1H-cyclopenta[a]phenanthren-11-yl)phenyl)(methyl)amino)hexyl)piperazine-1-carboxylate] | < 0.01 | 10 to 100 | 10 to 100 | 101 to 1000 | < 0.01 | – | – |
| CC[C@@]1(O)C(=O)OCc2c1cc1n(c2=O)Cc2c-1nc1cc(F)c(C)c3c1c2[C@@H](NC(=O)OCc1ccc(NC(=O)[C@H](CCCNC(N)=O)NC(=O)[C@@H](NCCCCCCN(C)c2ccc([C@H]4C[C@@]5(C)[C@@H](CC[C@]5(OC(C)=O)C(C)=O)[C@@H]5CCC6=CC(=O)CCC6=C54)cc2)C(C)C)cc1)CC3 [Compound 59] | – | 10 to 100 | 10 to 100 | – | 0.01 to 0.1 | 0.101 to 1 | 0.101 to 1 |
| CC[C@@]1(O)C(=O)OCc2c1cc1n(c2=O)Cc2cc3c(CN(C)C)c(OC(=O)N(C)Cc4ccc(NC(=O)[C@H](CCCNC(N)=O)NC(=O)[C@@H](NCCCCCCN(C)c5ccc([C@H]6C[C@@]7(C)[C@@H](CC[C@]7(OC(C)=O)C(C)=O)[C@@H]7CCC8=CC(=O)CCC8=C76)cc5)C(C)C)cc4)ccc3nc2-1 [Compound No. 60] | – | > 1000 | > 1000 | – | < 0.01 | 0.01 to 0.1 | > 1 |
| CC[C@@]1(O)C(=O)OCc2c1cc1n(c2=O)Cc2cc3c(CN(C)C)c(OC(=O)N4CCN(CCCCCCNc5ccc([C@H]6C[C@@]7(C)[C@@H](CC[C@]7(OC(C)=O)C(C)=O)[C@@H]7CCC8=CC(=O)CCC8=C76)cc5)CC4)ccc3nc2-1 [Compound No. 61, (S)-10-((dimethylamino)methyl)-4-ethyl-4-hydroxy-3,14-dioxo-3,4,12,14-tetrahydro-1H-pyrano[3′,4′:6,7]indolizino[1,2-b]quinolin-9-yl 4-(6-((4-((8S,11R,13S,14S,17R)-17-acetoxy-17-acetyl-13-methyl-3-oxo-2,3,6,7,8,11,12,13,14,15,16,17-dodecahydro-1H-cyclopenta[a]phenanthren-11-yl)phenyl)amino)hexyl)piperazine-1-carboxylate] | – | 10 to 100 | 101 to 1000 | – | < 0.01 | 0.01 to 0.1 | 0.101 to 1 |
